Values of other authors as cited in patent US10399920B2, “Crystalline form of cannabidiol” (S&B Pharma, Inc., priority 2016, dated 2019).

System: epilepsy
Settings: animal studies; dosed at 50 and 100 mg/kg intra-peritoneally; Cannabidiol prepared by non-synthetic methods

C=C(C)[C@@H]1CCC(C)=C[C@H]1c1c(O)cc(CCCCC)cc1O [Cannabidiol]
reducing mortality: effective in reducing mortality
